Data taken from patent US20110159504A1, “METHYLATION MARKERS FOR SENSITIVITY TO MICROTUBE BASED THERAPIES AND METHODS OF USE” (THE JOHNS HOPKINS UNIVERSITY, priority 2008, published 2011).
“Also recorded” adds a separate entry of the source.

Columns and labels:
[1] = system: CHFR expression in esophageal cancer cell lines; experiment: CHFR expression by RT-PCR in esophageal cancer cell lines after treatment with demethylating agent; type: cell-based; conditions: for Expression of CHFR (RNA level, RT-PCR) in CHFR-methylated cell lines: KYSE150 and KYSE510, no expression at baseline, 72 hour treatment
Excerpt: A) Methylation-specific PCR (MSP) of the CHFR promoter region was examined in esophageal cancer cell lines. […] B) Expression of CHFR as determined by RT-PCR. […] C) Position of MSP primers and molecular beacon in the promoter region of the CHFR gene. A previously described gel-based MSP assay for detection of CHFR methylation in colorectal cancer was used 20.

[2] = system: advanced localized esophageal cancer; experiment: Response (pCR) and overall survival of esophageal cancer patients after neoadjuvant chemoradiotherapy and surgery, by CHFR methylation status; type: in vivo, human; conditions: for Overall survival when CHFR methylation present vs. absent: paclitaxel n=31, docetaxel n=18, Kaplan-Meier; for Overall survival, docetaxel vs. paclitaxel: taxane-based therapy, N=49
Experimental: Endoscopic tumor biopsy specimens were studied from 81 patients with advanced localized esophageal cancer scheduled to undergo neoadjuvant chemoradiotherapy and surgery at the Johns Hopkins Hospital (JHH) between January 1995 and January 2007. Forty-nine patients were treated with taxane based combination chemoradiotherapy. Pretreatment esophageal tumor tissue from endoscsopic biopsy was initially available from JHH for twenty-one patients treated with taxanes. After an analysis of these initial 21 patients, IRB permission was obtained to request further biopsy specimens from referring endoscopy centers for patients subsequently treated at Johns Hopkins Hospital. This allowed analysis of pretreatment endoscopic tumor biopsies from an additional 28 patients treated with taxanes and 32 patients treated with non-taxane regimens. […] Of the forty-nine taxane-treated patients, thirty-one received paclitaxel containing combinations, while eighteen received a docetaxel-based combination shown in the Table below.
Response to preoperative chemoradiotherapy was based on pathology of the resected esophagus and nodal tissue specimen and classified as either pathologic complete response (pCR) or non-pCR, where pCR is the complete absence of intact tumor cells in surgical pathology specimens. We verified histological results and deaths during follow-up by re-examining original hospital records. This study was approved by the Johns Hopkins Institutional Review Board.
Methylation of CHFR was determined by detecting analyte (CHFR and ACTS) with real-time MSP using molecular beacons. These consisted of parallel amplification/quantification using specific primer and detector pairs for each analyte using the iCycler (BioRad Laboratories, Hercules, Calif.). […] Duplicate PCR amplifications were analyzed using iQuant 3.0 software (BioRad), exported as Ct values, and used to calculate copy numbers based on a linear regression of values plotted on a standard curve of 20-2×10^6 gene copy equivalents of plasmid DNA containing bisulfite modified CHFR. CHFR copy numbers were divided by ACTB copy numbers for each sample to normalize for DNA quality and quantity, multiplied by 100 for convenience to determine the ratio-value. […]
Based upon findings from the initial 21 patients treated with taxanes and 40% methylation prevalence, the study size necessary to detect a hazard ratio of death of 3.00 for unmethylated CHFR was estimated. […] The primary endpoint was time to death or censor measured from the origin date of pretreatment endoscopic biopsy. […] Associations between clinical response and CHFR methylation were assessed using logistic regression. […] Statistical comparisons and survival between groups were analyzed using the log-rank test. […]

Nc1ncn([C@H]2C[C@H](O)[C@@H](CO)O2)c(=O)n1 [5-aza-2′-deoxycytidine]
Expression of CHFR (RNA level, RT-PCR) in CHFR-methylated cell lines [1]: re-express the gene at the RNA level
Expression of CHFR (RNA level, RT-PCR) in CHFR-methylated cell lines ([1]; listed as 5-aza-2′ deoxycytidine): reversed
Expression of CHFR (RT-PCR) in unmethylated cell lines ([1]; all other (unmethylated) esophageal cancer cell lines, express CHFR at baseline): not affected

CC(=O)O[C@H]1C(=O)[C@@]2(C)[C@H]([C@H](OC(=O)c3ccccc3)[C@]3(O)C[C@H](OC(=O)[C@H](O)[C@@H](NC(=O)c4ccccc4)c4ccccc4)C(C)=C1C3(C)C)[C@]1(OC(C)=O)CO[C@@H]1C[C@@H]2O [paclitaxel]
Overall survival when CHFR methylation present vs. absent [2]: survival advantage; also recorded: significantly greater
Overall survival, docetaxel vs. paclitaxel [2]: no difference

CC(=O)O[C@@]12CO[C@@H]1C[C@H](O)[C@@]1(C)C(=O)[C@H](O)C3=C(C)[C@@H](OC(=O)[C@H](O)[C@@H](NC(=O)OC(C)(C)C)c4ccccc4)C[C@@](O)([C@@H](OC(=O)c4ccccc4)[C@H]21)C3(C)C [docetaxel]
Overall survival when CHFR methylation present vs. absent [2]: survival advantage; also recorded: improvement in survival
Overall survival, docetaxel vs. paclitaxel [2]: no difference
